Measured values: ChEMBL document CHEMBL2177047, “Design, synthesis, and pharmacological evaluation of bis-2-(5-phenylacetamido-1,2,4-thiadiazol-2-yl)ethyl sulfide 3 (BPTES) analogs as glutaminase inhibitors” (J Med Chem, 2012)
pIC50: −log10 of the molar value. In brackets after ≈: the same amount, converted by molar mass. Activity calls are given as the source filed them. The calls are words filed in the database; no cut-off is given here.

How the values were obtained:
Liver = assay: Metabolic stability in mouse liver microsomes at 5 uM up to 1 hr by LC/MS/MS analysis; assay type: ADME, Microsome
physchem = details: PBS buffer, pH 7.4
Description: Aqueous solubility of the compound in PBS buffer at pH 7.4 after 72 hrs by conventional shake flask method

[1] = biological target: T1, Glutaminase kidney isoform, mitochondrial (Homo sapiens, UniProt O94925); assay: Inhibition of human kidney glutaminase (124 to 669) using L-[3H]-glutamine as substrate after 45 mins by GLS assay
T1 sequence (O94925 whole entry): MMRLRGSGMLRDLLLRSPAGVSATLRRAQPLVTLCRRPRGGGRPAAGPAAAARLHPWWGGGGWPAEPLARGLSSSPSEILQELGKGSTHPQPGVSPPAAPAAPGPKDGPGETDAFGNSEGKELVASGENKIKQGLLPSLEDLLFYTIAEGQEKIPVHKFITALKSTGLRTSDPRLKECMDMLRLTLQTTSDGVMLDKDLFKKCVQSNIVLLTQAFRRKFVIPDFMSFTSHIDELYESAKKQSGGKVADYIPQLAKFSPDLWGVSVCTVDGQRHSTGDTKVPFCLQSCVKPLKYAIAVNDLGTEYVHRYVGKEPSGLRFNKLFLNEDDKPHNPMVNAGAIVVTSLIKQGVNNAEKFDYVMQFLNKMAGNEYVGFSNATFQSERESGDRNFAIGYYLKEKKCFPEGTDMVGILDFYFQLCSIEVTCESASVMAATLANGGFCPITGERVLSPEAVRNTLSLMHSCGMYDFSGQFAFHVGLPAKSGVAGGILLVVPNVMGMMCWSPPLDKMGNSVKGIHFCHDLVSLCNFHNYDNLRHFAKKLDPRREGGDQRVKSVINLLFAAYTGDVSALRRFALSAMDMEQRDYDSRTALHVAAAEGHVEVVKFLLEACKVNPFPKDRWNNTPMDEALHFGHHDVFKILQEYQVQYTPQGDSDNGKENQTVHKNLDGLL

P493 [2] = assay: Antitumor activity against human P493 cells xenografted in SCID mouse assessed as reduction in tumor growth at 12.5 mg/kg, ip administered every other day from day 10 measured on days 10 to 19 relative to vehicle-treated control; assay type: functional, organism-based; parameters: dose 12.5 mg/kg
P493 [3] = assay: (§1) Cytotoxicity against human P493 cells assessed as growth inhibition by trypan blue dye exclusion assay; assay type: functional, cell-based
[4] = biological target: T2, Glutaminase liver isoform, mitochondrial (Mus musculus) (UniProt Q571F8); assay: Inhibition of mouse liver GLS2 up to 100 uM
T2 sequence (whole entry): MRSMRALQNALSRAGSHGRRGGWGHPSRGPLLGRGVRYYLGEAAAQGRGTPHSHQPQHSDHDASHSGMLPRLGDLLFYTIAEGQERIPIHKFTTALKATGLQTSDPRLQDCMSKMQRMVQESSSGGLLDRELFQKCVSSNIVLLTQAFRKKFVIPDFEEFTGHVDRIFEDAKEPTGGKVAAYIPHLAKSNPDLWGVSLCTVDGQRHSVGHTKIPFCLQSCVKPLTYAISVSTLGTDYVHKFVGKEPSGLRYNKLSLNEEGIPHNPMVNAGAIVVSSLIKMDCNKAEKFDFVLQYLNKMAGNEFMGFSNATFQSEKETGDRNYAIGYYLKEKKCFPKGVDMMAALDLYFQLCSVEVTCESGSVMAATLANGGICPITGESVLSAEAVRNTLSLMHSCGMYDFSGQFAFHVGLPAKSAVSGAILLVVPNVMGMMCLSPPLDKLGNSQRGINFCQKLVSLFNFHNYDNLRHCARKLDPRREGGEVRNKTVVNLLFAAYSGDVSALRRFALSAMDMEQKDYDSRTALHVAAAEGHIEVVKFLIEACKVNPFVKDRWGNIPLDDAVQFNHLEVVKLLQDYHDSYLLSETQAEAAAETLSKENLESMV

[5] = as §1; assay type: functional, cell-based; details: P493-6

SMILES	pIC50 [1]	also measured
Nc1nnc(CCCCc2nnc(NC(=O)Cc3ccccc3)s2)s1	–	Stability (Liver): Stable; solubility thermodynamic at 72 h (physchem): 3.4 µg/mL (≈ 9.08 µM)
O=C(CCCCc1nnc(NC(=O)Cc2ccccc2)s1)NCc1ccc(C(F)(F)F)cc1	< 4.00	–
CN1CCCC1CCNC(=O)CCCCc1nnc(NC(=O)Cc2ccccc2)s1 (stereo not given)	5.09	–
CN(C(=O)CCCCc1nnc(NC(=O)Cc2ccccc2)s1)C(C)(C)C	5.28	–
CC(C(=O)Nc1nnc(CCCCc2nnc(N)s2)s1)c1ccccc1 (stereo not given)	4.92	–
NCCNC(=O)CCCCc1nnc(NC(=O)Cc2ccccc2)s1	< 4.00	–
O=C(CCCCc1nnc(NC(=O)Cc2ccccc2)s1)NCCN1CCC(O)CC1	5.42	–
Nc1nnc(CCCCc2nnc(NC(=O)c3ccccc3)s2)s1	5.14	–
Nc1nnc(CCCc2nnc(NC(=O)Cc3ccccc3)s2)s1	4.82	–
Nc1nnc(CCCCc2nnc(NC(=O)CC3CCCCC3)s2)s1	4.66	–
Nc1nnc(CCCCc2nnc(NC(=O)Cc3ccc(F)cc3)s2)s1	5.59	–
Nc1nnc(CCSCCc2nnc(NC(=O)Cc3ccccc3)s2)s1	–	TGI (P493 [2]): Active; growth inhibition (GI) (P493 [3]): Dose-dependent effect; inhibition [4]: inactive
CN(C)c1ccc(CNC(=O)CCCCc2nnc(NC(=O)Cc3ccccc3)s2)cc1	4.32	–
CCN(CC)CCNC(=O)CCCCc1nnc(NC(=O)Cc2ccccc2)s1	4.59	–
O=C(CCCCc1nnc(NC(=O)Cc2ccccc2)s1)NCCN1CCC(c2ccccc2)CC1	5.85	–
Nc1nnc(CCCCc2nnc(NC(=O)CCc3ccccc3)s2)s1	< 4.00	–
Cc1ccc(CC(=O)Nc2nnc(CCCCc3nnc(N)s3)s2)cc1	5.35	–
Nc1nnc(CCCCc2cnc(NC(=O)Cc3ccccc3)s2)s1	< 4.00	–
O=C(CCCCc1nnc(NC(=O)Cc2ccccc2)s1)NCCN1CCCC1	–	Stability (Liver): Stable; pIC50 [5]: 4.40; solubility thermodynamic at 72 h (physchem): 683 µg/mL (≈ 1640 µM)
O=C(CCCCc1nnc(NC(=O)Cc2ccccc2)s1)NCc1ccccc1	< 4.00	–
Nc1nnc(CCCCc2csc(NC(=O)Cc3ccccc3)n2)s1	< 4.00	–
O=C(CCCCc1nnc(NC(=O)Cc2ccccc2)s1)NCCN1CCCCC1	5.00	–
Nc1nnc(CC[S+]([O-])CCc2nnc(NC(=O)Cc3ccccc3)s2)s1 (stereo not given)	4.21	–
CN(CCN1CCCC1)C(=O)CCCCc1nnc(NC(=O)Cc2ccccc2)s1	< 4.00	–
CC(C)(C)NC(=O)CCCCc1nnc(NC(=O)Cc2ccccc2)s1	4.96	–
